Values quoted from earlier work in patent US20130236944A1, “METHODS FOR THE INACTIVATION OF ANTIBIOTICS” (priority 2011, published 2013).

Settings: after 180 days; Hektoen et al. (1995)

| SMILES | degradation in marine sediments |
| --- | --- |
| CCn1cc(C(=O)O)c(=O)c2cc3c(cc21)OCO3 [oxolanic acid] | no degradation |
| CN(C)[C@@H]1C(O)=C(C(N)=O)C(=O)[C@@]2(O)C(O)=C3C(=O)c4c(O)cccc4[C@@](C)(O)[C@H]3[C@H](O)[C@@H]12 [oxytetracycline] | no degradation |
